From US4401660A, “Ester derivatives of 5-O-mycaminosyl tylonolide and method of using same” (Eli Lilly and Company, priority 1981, dated 1983)

How the values were obtained:
Format in all cases: cell-based
Set-up in all cases: unit not given here
[1] = tested on: Staphylococcus aureus X400; assay: MIC, standard agar-dilution assay (Table II); conditions: Staphylococcus aureus X400, methicillin-resistant strain
Protocol: (§1) The MIC's in Table II were determined by standard agar-dilution assays. The MIC's in Table III were obtained using a conventional broth-dilution microtiter test.

[2] = tested on: Staphylococcus aureus X1.1; assay: MIC, standard agar-dilution assay (Table II)
Protocol: as §1

[3] = tested on: Streptococcus Group D 9960; assay: MIC, standard agar-dilution assay (Table II)
Protocol: as §1

[4] = tested on: Staphylococcus aureus V41; assay: MIC, standard agar-dilution assay (Table II); conditions: Staphylococcus aureus V41, penicillin-resistant strain
Protocol: as §1

[5] = tested on: Haemophilus influenzae Holt; assay: MIC, standard agar-dilution assay (Table II); conditions: ampicillin-sensitive strain
Protocol: as §1

[6] = tested on: Streptococcus Group D X66; assay: MIC, standard agar-dilution assay (Table II)
Protocol: as §1

[7] = tested on: Staphylococcus epidermidis EPI2; assay: MIC, standard agar-dilution assay (Table II)
Protocol: as §1

[8] = tested on: Streptococcus pyogenes C203; assay: MIC, standard agar-dilution assay (Table II)
Protocol: as §1

[9] = tested on: Staphylococcus epidermidis EPI1; assay: MIC, standard agar-dilution assay (Table II)
Protocol: as §1

[10] = tested on: Haemophilus influenzae R252; assay: MIC, standard agar-dilution assay (Table II); conditions: Haemophilus influenzae R252, ampicillin-resistant strain
Protocol: as §1

[11] = tested on: Staphylococcus aureus S13E; assay: MIC, standard agar-dilution assay (Table II)
Protocol: as §1

[12] = tested on: Streptococcus pneumoniae Park I; assay: MIC, standard agar-dilution assay (Table II)
Protocol: as §1

[13] = tested on: Pasteurella haemolytica 23C; assay: MIC, broth-dilution microtiter test (Table III)
Protocol: as §1

[14] = tested on: Pasteurella multocida 22A; assay: MIC, broth-dilution microtiter test (Table III)
Protocol: as §1

[15] = tested on: Pasteurella multocida 17E; assay: MIC, broth-dilution microtiter test (Table III); conditions: bovine isolate
Protocol: as §1

[16] = tested on: Streptococcus sp. 80; assay: MIC, broth-dilution microtiter test (Table III)
Protocol: as §1

[17] = tested on: Pasteurella multocida 40G; assay: MIC, broth-dilution microtiter test (Table III)
Protocol: as §1

[18] = tested on: Mycoplasma gallisepticum; assay: MIC, broth-dilution microtiter test (Table III)
Protocol: as §1

[19] = tested on: Pasteurella haemolytica 22C; assay: MIC, broth-dilution microtiter test (Table III)
Protocol: as §1

[20] = tested on: Pasteurella haemolytica 41D; assay: MIC, broth-dilution microtiter test (Table III)
Protocol: as §1

[21] = tested on: Pasteurella multocida 60A; assay: MIC, broth-dilution microtiter test (Table III); conditions: avian isolate
Protocol: as §1

[22] = tested on: Pasteurella multocida 68C; assay: MIC, broth-dilution microtiter test (Table III)
Protocol: as §1

[23] = tested on: Mycoplasma synoviae; assay: MIC, broth-dilution microtiter test (Table III)
Protocol: as §1

[24] = tested on: Mycoplasma hyorhinis; assay: MIC, broth-dilution microtiter test (Table III)
Protocol: as §1

[25] = tested on: Staphylococcus aureus; assay: MIC, broth-dilution microtiter test (Table III)
Protocol: as §1

| SMILES | minimal inhibitory concentration (MIC) [1] | minimal inhibitory concentration (MIC) [2] | minimal inhibitory concentration (MIC) [3] | minimal inhibitory concentration (MIC) [4] | minimal inhibitory concentration (MIC) [5] | minimal inhibitory concentration (MIC) [6] | minimal inhibitory concentration (MIC) [7] | minimal inhibitory concentration (MIC) [8] | minimal inhibitory concentration (MIC) [9] | minimal inhibitory concentration (MIC) [10] | minimal inhibitory concentration (MIC) [11] | minimal inhibitory concentration (MIC) [12] | minimal inhibitory concentration (MIC) [13] | minimal inhibitory concentration (MIC) [14] | minimal inhibitory concentration (MIC) [15] | minimal inhibitory concentration (MIC) [16] | minimal inhibitory concentration (MIC) [17] | minimal inhibitory concentration (MIC) [18] | minimal inhibitory concentration (MIC) [19] | minimal inhibitory concentration (MIC) [20] | further results |
| --- | --- | --- | --- | --- | --- | --- | --- | --- | --- | --- | --- | --- | --- | --- | --- | --- | --- | --- | --- | --- | --- |
| CCC1OC(=O)CC(O)C(C)C(OC2OC(C)C(O)C(N(C)C)C2OC(C)=O)C(CC=O)CC(C)C(=O)C=CC(C)=CC1COC(=O)c1ccc2ccccc2c1 (stereo not drawn) [Compound 58] | 0.5 | 0.25 | 0.5 | 0.5 | 2 | 0.25 | 0.5 | 0.125 | 0.25 | 1 | 0.25 | 0.03 | 6.25 | 6.25 | 3.12 | 0.78 | 3.12 | < 0.05 | 12.5 | 6.25 | minimal inhibitory concentration (MIC) [21]: 3.12; minimal inhibitory concentration (MIC) [22]: 1.56; minimal inhibitory concentration (MIC) [23]: 0.78; minimal inhibitory concentration (MIC) [24]: 6.25; minimal inhibitory concentration (MIC) [25]: 1.56 |
| CCC1OC(=O)CC(O)C(C)C(OC2OC(C)C(O)C(N(C)C)C2O)C(CC=O)CC(C)C(=O)C=CC(C)=CC1COC(=O)c1ccc2ccccc2c1 (stereo not drawn) [Compound 59] | 0.5 | 0.5 | 0.5 | 0.5 | 4 | 0.5 | 0.5 | 0.5 | 0.5 | 2 | 0.5 | 0.125 | 12.5 | 12.5 | 3.12 | 0.39 | 3.12 | 0.39 | 12.5 | 12.5 | minimal inhibitory concentration (MIC) [21]: 3.12; minimal inhibitory concentration (MIC) [22]: 3.12; minimal inhibitory concentration (MIC) [23]: 1.56; minimal inhibitory concentration (MIC) [24]: 6.25; minimal inhibitory concentration (MIC) [25]: 0.78 |
| CCC1OC(=O)CC(O)C(C)C(OC2OC(C)C(O)C(N(C)C)C2OC(C)=O)C(CC=O)CC(C)C(=O)C=CC(C)=CC1COC(=O)CCCCc1ccccc1 (stereo not drawn) [Compound 60] | 0.25 | 0.25 | 0.25 | 0.25 | 2 | 0.25 | 0.5 | 0.25 | 0.25 | 2 | 0.25 | 0.125 | 6.25 | 3.12 | 3.12 | 0.39 | 12.5 | < 0.05 | 6.25 | 6.25 | minimal inhibitory concentration (MIC) [21]: 3.12; minimal inhibitory concentration (MIC) [22]: 1.56; minimal inhibitory concentration (MIC) [23]: 0.78; minimal inhibitory concentration (MIC) [24]: 6.25; minimal inhibitory concentration (MIC) [25]: 0.39 |
| CCC1OC(=O)CC(O)C(C)C(OC2OC(C)C(O)C(N(C)C)C2O)C(CC=O)CC(C)C(=O)C=CC(C)=CC1COC(=O)CCCCc1ccccc1 (stereo not drawn) [Compound 61] | 0.25 | 0.25 | 0.25 | 0.25 | 2 | 0.25 | 0.25 | 0.25 | 0.25 | 2 | 0.25 | 0.06 | 12.5 | 6.25 | 6.25 | 1.56 | 6.25 | 0.78 | 12.5 | 6.25 | minimal inhibitory concentration (MIC) [21]: 3.12; minimal inhibitory concentration (MIC) [22]: 6.25; minimal inhibitory concentration (MIC) [23]: 1.56; minimal inhibitory concentration (MIC) [24]: 6.25; minimal inhibitory concentration (MIC) [25]: 1.56 |
| CCC1OC(=O)CC(O)C(C)C(OC2OC(C)C(O)C(N(C)C)C2OC(C)=O)C(CC=O)CC(C)C(=O)C=CC(C)=CC1COC(=O)Cc1cc(OC)ccc1OC (stereo not drawn) [Compound 62] | 0.25 | 0.25 | 0.125 | 0.25 | 1 | 0.125 | 0.25 | 0.06 | 0.125 | 2 | 0.125 | 0.03 | 6.25 | 3.12 | 3.12 | 0.195 | 3.12 | < 0.05 | 6.25 | 3.12 | minimal inhibitory concentration (MIC) [21]: 12.5; minimal inhibitory concentration (MIC) [22]: 6.25; minimal inhibitory concentration (MIC) [23]: < 0.05; minimal inhibitory concentration (MIC) [24]: 0.78; minimal inhibitory concentration (MIC) [25]: 0.78 |
| CCC1OC(=O)CC(O)C(C)C(OC2OC(C)C(O)C(N(C)C)C2OC(C)=O)C(CC=O)CC(C)C(=O)C=CC(C)=CC1COC(=O)Cc1ccc([N+](=O)[O-])cc1 (stereo not drawn) [Compound 64] | 0.125 | 0.125 | 0.125 | 0.125 | 1 | 0.125 | 0.25 | 0.06 | 0.125 | 1 | 0.125 | 0.015 | 3.12 | 1.56 | 1.56 | < 0.05 | 1.56 | 0.097 | 3.12 | 3.12 | minimal inhibitory concentration (MIC) [21]: 1.56; minimal inhibitory concentration (MIC) [22]: 1.56; minimal inhibitory concentration (MIC) [23]: < 0.05; minimal inhibitory concentration (MIC) [24]: 0.78; minimal inhibitory concentration (MIC) [25]: 0.78 |
